For test [1], the system named is HepaRG. The test is described as follows: Cytotoxicity against human HepaRG cells assessed as mortality rate at 25 uM incubated for 30 mins by LDH assay relative to control. Conditions: 0.5 h. It counts as functional.
In test [2] the test system is HepaRG. The test is described as follows: Cytotoxicity against human HepaRG cells assessed as mortality rate at 250 uM incubated for 30 mins by LDH assay relative to control. In kind it is functional. To be noted: 0.5 h.
Test [3] concerns Mus musculus. The test is described as follows: Antihyperlipidemic activity against Triton WR-1339 induced hyperlipidemic male Swiss albino mouse model assessed as total cholesterol level in mouse blood at 13 mg/kg, po pre-treated with compound for 6 days followed by triton WR-1339 induction and measured after 24 hrs (reference value: 426.3 +/- 2 mg/dL). To be noted: time 7 day. In kind it is functional.

Test [4] concerns Mus musculus. The test is described as follows: Antihyperlipidemic activity against Triton WR-1339 induced hyperlipidemic male Swiss albino mouse model assessed as HDL level in mouse blood at 13 mg/kg, po pre-treated with compound for 6 days followed by triton WR-1339 induction and measured after 24 hrs (reference value: 97.4 +/- 1.2 mg/dL). In kind it is functional. To be noted: time 7 day.

Test [5] concerns Mus musculus. The test is described as follows: Antihyperlipidemic activity against Triton WR-1339 induced hyperlipidemic male Swiss albino mouse model assessed as LDL level in mouse blood at 13 mg/kg, po pre-treated with compound for 6 days followed by triton WR-1339 induction and measured after 24 hrs (reference value: 231.9 +/- 0.7 mg/dL). It counts as functional. To be noted: time 7 day.

Test [6] has as its system Mus musculus. Nature of the test: Antihyperlipidemic activity against Triton WR-1339 induced hyperlipidemic male Swiss albino mouse model assessed as VLDL level in mouse blood at 13 mg/kg, po pre-treated with compound for 6 days followed by triton WR-1339 induction and measured after 24 hrs (reference value: 97.1 +/- 1 mg/dL). In kind it is functional. Conditions: time 7 day.

Test [7] deals with Mus musculus. Nature of the test: Antihyperlipidemic activity against Triton WR-1339 induced hyperlipidemic male Swiss albino mouse model assessed as TG level in mouse blood at 13 mg/kg, po pre-treated with compound for 6 days followed by triton WR-1339 induction and measured after 24 hrs (reference value: 485.3 +/- 4.8 mg/dL). It counts as functional. To be noted: time 7 day.

Test [8] has as its system Mus musculus. The test is described as follows: Antihyperglycemic activity against Triton WR-1339 induced hyperlipidemic male Swiss albino mouse model assessed as blood glucose level at 13 mg/kg, po pre-treated with compound for 6 days followed by triton WR-1339 induction and measured after 24 hrs by glucose meter analysis (reference value: 121.6 +/- 7.8). In kind it is functional. Conditions: time 7 day.

For test [9], the system named is Mus musculus. The test is described as follows: Antihyperlipidemic activity in Triton WR-1339 induced hyperlipidemic male Swiss albino mouse model assessed as change in carotid artery endothelial cells at 13 mg/kg, po pre-treated with compound for 6 days followed by triton WR-1339 induction and measured after 24 hrs by H&E staining based analysis. Conditions: time 7.0 day. In kind it is functional, organism-based.

In test [10] the test system is Mus musculus. The test is described as follows: Antihyperlipidemic activity in Triton WR-1339 induced hyperlipidemic male Swiss albino mouse model assessed as histopathological change in kidney at 13 mg/kg, po pre-treated with compound for 6 days followed by triton WR-1339 induction and measured after 24 hrs by H&E staining based analysis. In kind it is functional, organism-based. To be noted: time 7.0 day.

The test system of test [11] is Mus musculus. The test is described as follows: Antihyperlipidemic activity in Triton WR-1339 induced hyperlipidemic male Swiss albino mouse model assessed as amelioration of islet cell disruption at 13 mg/kg, po pre-treated with compound for 6 days followed by triton WR-1339 induction and measured after 24 hrs by H&E staining based microscopic analysis. It counts as functional, organism-based. To be noted: time 7.0 day.

The source made the active and inactive calls. The calls are words filed in the database; no cut-off is given here.

Consider `CC(C)OC(=O)C(C)(C)Oc1ccc(C(=O)c2ccc(Cl)cc2)cc1` [FENOFIBRATE], for which the Activity with HepaRG [1] turned out to be 12%; in the test on HepaRG [2] it was 18%; with Mus musculus [3], 135.7 mg/dL; in the test with Mus musculus [4], 58.7 mg/dL; in the test on Mus musculus [5] it was 54.4 mg/dL; in the test with Mus musculus [6], 20.6 mg/dL. The Activity was found to be 103 mg/dL in the test on Mus musculus [7] and 75 mg/dL with Mus musculus [8]. Moreover, the outcome in the test with Mus musculus [9], in the test on Mus musculus [10] and in the test with Mus musculus [11] was Active.

For the origin of these results see ChEMBL document CHEMBL6134831 (Eur J Med Chem, 2025).
